Columns and labels:
[1] = test system: cumulus-oocyte complexes (cumulus expansion); test: Cumulus expansion assay in vitro; type: cell-based, mice; conditions: in competition with PGE2
Method: Folliculogenesis is induced in immature female mice (strain: CD1 (ICR) from Charles River) at an age of 14-18 days by a single dose (intraperitoneal) of 10 I.U. of PMSG (Pregnant Mare Serum Gonadotropine; Sigma G-4877, Lot 68H0909). 47-50 hours after the injection, the ovaries are removed and the cumulus-oocyte complexes are removed. The cumulus complex is not yet expanded at this stage.
The cumulus-oocyte complexes are then incubated with prostaglandin E2 (PGE2) (0.3 μM), vehicle control (ethanol) or test substances for 20-24 hours. Medium: alpha-MEM medium with 0.1 mM IBMX, pyruvates (0.23 mM) glutamines (2 mM), pen/strep 100 IU/ml pen. and 100 μg/ml strep.) and HSA (8 mg/ml)). Cumulus expansion is then established through the division into four stages (according to Vanderhyden et al. Dev Biol. 1990 August; 140(2):307-317).

[2] = molecular target: T1, EP2 subtype of the human PGE2 receptor (Homo sapiens, UniProt P43116); test: cAMP antagonism assay (HTRF, PGE2-stimulated cells); type: cell-based; conditions: in presence of PGE2
T1 construct: host or cells: cells in a cell culture plate
Method: (§1) The binding of PGE2 to the EP2 subtype of the human PGE2 receptor induces activation of membrane-associated adenylate cyclases and leads to the formation of cAMP. In the presence of the phosphodiesterase inhibitor IBMX, cAMP which has accumulated due to this stimulation and been released by cell lysis is employed in a competitive detection method. In this assay, the cAMP in the lysate competes with cAMP-XL665 for binding of an Eu cryptate-labelled anti-cAMP antibody.
(§2) The two signals are measured in a suitable measuring instrument with a time lag, i.e. after the background fluorescence has declined.
(§3) The substance solutions (0.75 μl) introduced into an assay plate and 30% DMSO are dissolved in 16 μl of a KRSB+IBMX stimulation solution (1× Krebs-Ringer Bicarbonate Buffer; Sigma-Aldrich # K-4002; including 750 μM 3-isobutyl-1-methylxanthine Sigma-Aldrich # I-7018), and then 15 μl thereof are transferred into a media-free cell culture plate which has been washed with KRSB shortly beforehand.
After preincubation at room temperature (RT) for 30 minutes, 5 μl of a 4×PGE2 solution (11 nM) are added, and incubation is carried out in the presence of the agonist at RT for a further 60 min (volume: ˜20 μl) before the reaction is then stopped by adding 5 μl of lysis buffer and incubated at RT for a further 20 min (volume: 25 μl). The cell lysate is then transferred into a measuring plate and measured in accordance with the manufacturer's information (cyclic AMP kit Cisbio International # 62AMPPEC).

[3] = molecular target: T1, EP2 subtype of the human PGE2 receptor; test: cAMP agonism assay (cellular agonism test); type: cell-based; conditions: without PGE2
Method: as §1, §2, §3
After incubation at room temperature (RT; volume: ˜15 μl) for 60 minutes, the reaction is then stopped by adding 5 μl of lysis buffer and incubated at RT for a further 20 min (volume: ˜20 μl). The cell lysate is then transferred into a measuring plate and measured in accordance with the manufacturer's information (cyclic AMP kit Cisbio International # 62AMPPEC).

T1 sequence (P43116 whole entry): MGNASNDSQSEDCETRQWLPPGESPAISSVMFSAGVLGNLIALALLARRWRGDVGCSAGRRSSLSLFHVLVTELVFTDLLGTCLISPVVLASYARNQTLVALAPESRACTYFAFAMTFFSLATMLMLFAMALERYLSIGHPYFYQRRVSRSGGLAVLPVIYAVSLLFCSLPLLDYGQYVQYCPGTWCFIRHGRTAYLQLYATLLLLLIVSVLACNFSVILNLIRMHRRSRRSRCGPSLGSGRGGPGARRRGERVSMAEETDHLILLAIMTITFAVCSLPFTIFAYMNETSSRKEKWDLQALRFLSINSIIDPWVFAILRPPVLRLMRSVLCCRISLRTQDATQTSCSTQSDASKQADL

IC50 [2] [µM] | effect in the cellular agonism test [3] | SMILES | inhibition of cumulus expansion ([1]; concentration 100-200 μM) [%] | inhibition at 10 µM ([1]; Mus musculus, concentration 10 μM) [%]
– | – | CC(C)Oc1ccc2c(=O)c3cc(C(=O)O)ccc3oc2c1 [AH 6809, reference compound] | ~30 | –
6.8 | – | COc1cc(C(=O)NCCc2c(C)[nH]c3c(F)ccc(C)c23)cc(OC)c1OC [Example 2, N-[2-(7-Fluoro-2,4-dimethyl-1H-indol-3-yl)ethyl]-3,4,5-trimethoxybenzamide] | – | –
1.5 | – | Cc1[nH]c2c(F)ccc(C)c2c1CCNC(=O)c1ccc(C(F)(F)F)cc1 [Example 6, N-[2-(7-Fluoro-2,4-dimethyl-1H-indol-3-yl)ethyl]-4-trifluoromethylbenzamide] | – | –
1.2 | no inhibition | Cc1[nH]c2c(F)ccc(C)c2c1CCNC(=O)c1ccc(-c2ccc(F)cc2)cc1 [Example 29, 4′-Fluorobiphenyl-4-carboxylic acid [2-(7-fluoro-2,4-dimethyl-1H-indol-3-yl)ethyl]amide] | – | ~20
